Data from PubChem BioAssay AID489033 (Sanford-Burnham Center for Chemical Genomics, 2010).
pIC50: −log10 of the molar value. Calls of active or inactive are those of the source. No rule for the calls is given here.

test system: 697B B-cell line, NF-kB luciferase reporter luminescence; test: NF-kB reporter inhibition in B cells, dose response, selectivity assay for T-cell antigen receptor NF-kB inhibitors, 697B cells, luminescence (AID 489033)

Row | Compound | IC50 | pIC50
1 | CCCCCCCOc1ccc(OC(=O)c2ccncc2)cc1 | > 80 µM (inactive) | 
2 | O=C(NCCc1ccccc1)c1ccc2c(c1)OCCO2 |  | 5.95
3 | O=C1C=C(c2ccc3ncccc3c2)C[C@@H](c2ccc3c(c2)OCO3)C1 | > 80 µM (inactive) | 
4 | Brc1ccc2c(c1)C(C1=NCCN1)c1ccccc1CS2 (stereo not given) | > 80 µM (inactive) | 
5 | Cc1ccc(S(=O)(=O)Cc2ccc(C(=O)N3CCN(c4cccc(C)c4C)CC3)o2)cc1 | 57.9 µM (inactive) | 
6 | Cc1ccc(C(=O)N/N=C/c2ccc([N+](=O)[O-])s2)cc1 |  | 5.38
7 | Cc1ccc(Oc2ccc(OCC(=O)Nc3ccncc3)cc2)cc1 | 58.6 µM (inactive) | 
8 | CCCCCCCCCCCCCCCC[n+]1ccc(/C=N/O)cc1 |  | 4.89
9 | NC(=O)CC(NC(=O)c1ccc(Br)cc1)c1ccc(N2CCCCCC2)c([N+](=O)[O-])c1 (stereo not given) | 47.5 µM (inactive) | 
10 | COc1cc(-c2noc(C)c2/C=C/c2cccc([N+](=O)[O-])c2)cc(OC)c1OC | > 80 µM (inactive) | 
11 | COc1ccc(CCNc2nnc(Sc3nnnn3-c3ccccc3)s2)cc1OC |  | 4.72
12 | CCN(CC)c1ccc(/C=N/NC(=O)c2nnn(-c3nonc3N)c2C(C)C)c(O)c1 |  | 5.82
13 | COc1ccc(/C=c2/sc3n(c2=O)C(c2ccccc2OC)C2=C(N=3)c3ccccc3CC2)cc1O (stereo not given) | > 80 µM (inactive) | 
14 | COc1ccc(CS(=O)/C(Cl)=C(/Cl)C(=O)Nc2ccc(OC)nc2)cc1 (stereo not given) |  | 5.80
15 | C=CCn1c(C)cc(C2=NNC(=NCC)SC2)c1C |  | > 6.80
16 | CCOC(=O)N/N=C/c1c(C)nn(-c2cccc(C(F)(F)F)c2)c1Cl | > 80 µM (inactive) | 
17 | COc1cc(C(=O)Nc2ccc3c(c2)CCN3C(C)=O)cc(OC)c1OC | > 80 µM (inactive) | 
18 | O=C1/C(=C/c2ccc(N3CCOCC3)o2)SC(=Nc2ccccc2)N1CCc1c[nH]c2ccccc12 |  | 4.89
19 | O=[N+]([O-])c1nn(-c2ccc3c(c2)OCCO3)n(O)c1=Nc1ccccc1 |  | > 6.80
20 | Cc1cccc(N(C)S(=O)(=O)c2ccc(-c3cnc(C4CC4)o3)cc2)c1 | > 80 µM (inactive) | 
